In patent publication US10590143B2, “Herbicidally active (alkynyl-phenyl)-substituted cyclic dione compounds and derivatives thereof” (Syngenta Limited, priority 2013, dated 2020):

Tests used:
Experiment in all cases: Biological Example 2 glasshouse assay for herbicidal activity
Format in all cases: in vivo
[1] = test system: Lolium perenne (LOLPE); details: Lolium perenne, post-emergence, 360 h, 14 or 15 DAA, 0.2% v/v X-77, read-out: percentage phytotoxicity LOLPE
Experimental: (§1) Seeds of a variety of monocotyledonous and dicotyledonous test plants are sown in standard soil in pots. The plants are cultivated for one day (for pre-emergence) or for about 12 days (range=10-13 days) (for post-emergence) under controlled conditions in a glasshouse (warm climate species at 24/18° C., cool climate species at 20/16° C., both at day/night; 16 hours light; 65% humidity).
(§2) An “instant formulation”, known as the “IF50”, containing 50 g/litre (i.e. 5% w/v) of the “technical” (i.e. unformulated) active ingredient is prepared by dissolving the active ingredient in a mixture of organic solvents and emulsifier, details of which are provided in the Table below. This IF50 is then mixed with a small, variable amount of acetone to aid dissolution, before addition of a 0.2% v/v aqueous solution of the adjuvant X-77 (which is a mixture of alkyl aryl polyoxyethylene glycols and free fatty acids in isopropanol, CAS Registry number 11097-66-8), as the aqueous diluent, to form an aqueous spray solution which contains a predetermined concentration of the active ingredient (which varies depending on the application rate of the active ingredient to the plants) and 0.2% v/v of the adjuvant X-77. This aqueous spray solution is then sprayed onto the plants, after one day's cultivation (for pre-emergence) or after about 12 days' cultivation (for post-emergence).
(§3) The test plants are then grown on, in a glasshouse (greenhouse) under controlled conditions (at either 24/18° C. or 20/16° C. (day/night) as mentioned above; 16 hours light; 65% humidity) and are watered twice daily. Either 14 or 15 days after application of the herbicide (14 or 15 DAA) (for post-emergence), or 20 days after application of the herbicide (20 DAA) (for pre-emergence), the test plants are evaluated visually, and an assessed percentage phytotoxicity score is given for each herbicidal application on each plant species (where 100%=total damage to plant; 0%=no damage to plant).
(§4) Some of the typical test plants are as follows: • Cool climate crop plants: Triticum aestivum (TRZAW, winter wheat), Brassica napus (BRSNN, rape, also called oilseed rape or rapeseed), Beta vulgaris (BEAVA, sugarbeet). • Warm climate crop plants: Glycine max (GLXMA, soybean). • Cool climate (“cool season”) grassy monocotyledonous weeds: Alopecurus myosuroides (ALOMY), Avena fatua (AVEFA), Lolium perenne (LOLPE), Poa annua (POAAN), Bromus tectorum (BROTE). • Warm climate (“warm season”) grassy monocotyledonous weeds: Setaria faberi (SETFA), SORVU (Sorghum bicolor (L.) Moench ssp. Bicolor, or Sorghum vulgare Pers.), Digitaria sanguinalis (DIGSA), Echinochloa crus-galli (ECHCG), Brachiaria plantaginea (BRAPL); Zea mays (ZEAMX, corn, maize, e.g. volunteer corn).

[2] = test system: Setaria faberi (SETFA); details: post-emergence, 360 h, 14 or 15 DAA, 0.2% v/v X-77, read-out: percentage phytotoxicity SETFA
Experimental: as §1, §2, §3, §4

[3] = test system: Brassica napus (BRSNN, rape); details: Brassica napus, 360 h, post-emergence, 14 or 15 DAA, 0.2% v/v X-77, read-out: percentage phytotoxicity BRSNN
Experimental: as §1, §2, §3, §4

[4] = test system: Echinochloa crus-galli (ECHCG); details: Echinochloa crus-galli, post-emergence, 360 h, 14 or 15 DAA, 0.2% v/v X-77, read-out: percentage phytotoxicity ECHCG
Experimental: as §1, §2, §3, §4

[5] = test system: Zea mays (ZEAMX, corn, maize, e.g. volunteer corn); details: Zea mays, post-emergence, 360 h, 14 or 15 DAA, 0.2% v/v X-77, read-out: percentage phytotoxicity ZEAMX
Experimental: as §1, §2, §3, §4

[6] = test system: Glycine max (GLXMA, soybean); details: post-emergence, 360 h, 14 or 15 DAA, 0.2% v/v X-77, read-out: percentage phytotoxicity GLXMA
Experimental: as §1, §2, §3, §4

[7] = test system: Digitaria sanguinalis (DIGSA); details: post-emergence, 360 h, 14 or 15 DAA, 0.2% v/v X-77, read-out: percentage phytotoxicity DIGSA
Experimental: as §1, §2, §3, §4

[8] = test system: Beta vulgaris (BEAVA, sugarbeet); details: post-emergence, 360 h, 14 or 15 DAA, 0.2% v/v X-77, read-out: percentage phytotoxicity BEAVA
Experimental: as §1, §2, §3, §4

[9] = test system: Brachiaria plantaginea (BRAPL); details: Urochloa plantaginea, post-emergence, 360 h, 14 or 15 DAA, 0.2% v/v X-77, read-out: percentage phytotoxicity BRAPL
Experimental: as §1, §2, §3, §4

[10] = test system: Alopecurus myosuroides (ALOMY); details: post-emergence, 360 h, 14 or 15 DAA, 0.2% v/v X-77, read-out: percentage phytotoxicity ALOMY
Experimental: as §1, §2, §3, §4

[11] = test system: Triticum aestivum (TRZAW, winter wheat); details: post-emergence, 360 h, 14 or 15 DAA, 0.2% v/v X-77, read-out: percentage phytotoxicity TRZAW
Experimental: as §1, §2, §3, §4

[12] = test system: SORVU (Sorghum bicolor (L.) Moench ssp. Bicolor, or Sorghum vulgare Pers.); details: post-emergence, 360 h, 14 or 15 DAA, 0.2% v/v X-77, read-out: percentage phytotoxicity SORVU
Experimental: as §1, §2, §3, §4

[13] = test system: Avena fatua (AVEFA); details: post-emergence, 360 h, 14 or 15 DAA, 0.2% v/v X-77, read-out: percentage phytotoxicity AVEFA
Experimental: as §1, §2, §3, §4

Compound | pest or weed control at 30 g/ha [1] [%] | pest or weed control at 250 g/ha [1] [%] | pest or weed control at 30 g/ha [2] [%] | pest or weed control at 250 g/ha [2] [%] | plant injury at 30 g/ha [3] [%] | plant injury at 250 g/ha [3] [%] | pest or weed control at 30 g/ha [4] [%] | pest or weed control at 250 g/ha [4] [%] | pest or weed control at 30 g/ha [5] [%] | pest or weed control at 250 g/ha [5] [%] | plant injury at 30 g/ha [6] [%] | plant injury at 250 g/ha [6] [%] | pest or weed control at 30 g/ha [7] [%] | pest or weed control at 250 g/ha [7] [%] | plant injury at 30 g/ha [8] [%] | plant injury at 250 g/ha [8] [%] | pest or weed control at 30 g/ha [9] [%] | pest or weed control at 250 g/ha [9] [%] | pest or weed control at 30 g/ha [10] [%] | pest or weed control at 250 g/ha [10] [%] | further results
CC#Cc1cc(F)c(C2=C(OC(=O)c3ccccc3)C3CCC(C3)C2=O)c(OC)c1 (stereo not shown) [Compound P5, [3-(2-fluoro-6-methoxy-4-prop-1-ynyl-phenyl)-4-oxo-2-bicyclo[3.2.1]oct-2-enyl]benzoate] | 80 | 100 | 80 | 90 | 50 | 80 | 100 | 100 | 90 | 100 | 0 | 0 | 100 | 100 | 0 | 0 | 90 | 100 | 70 | 90 | plant injury at 30 g/ha [11]: 50%; pest or weed control at 30 g/ha [12]: 80%; pest or weed control at 250 g/ha [12]: 100%; pest or weed control at 30 g/ha [13]: 80%; pest or weed control at 250 g/ha [13]: 90%
CC#Cc1cc(F)c(C2=C(OC(=O)C(C)(C)C)C3CCC(C3)C2=O)c(OC)c1 (stereo not shown) [Compound P1] | 100 | 100 | 80 | 90 | 10 | 80 | 100 | 100 | 100 | 100 | 0 | 20 | 90 | 100 | 0 | 0 | 100 | 90 | 80 | 90 | plant injury at 30 g/ha [11]: 60%; plant injury at 250 g/ha [11]: 90%; pest or weed control at 30 g/ha [12]: 100%; pest or weed control at 250 g/ha [12]: 100%; pest or weed control at 30 g/ha [13]: 80%; pest or weed control at 250 g/ha [13]: 90%
CC#Cc1cc(F)c(C2=C(OC(=O)SCC)C3CCC(C3)C2=O)c(OC)c1 (stereo not shown) [Compound P4] | 90 | 100 | 90 | 100 | 50 | 80 | 90 | 100 | 100 | 100 | 10 | 20 | 80 | 100 | 0 | 0 | 100 | 100 | 80 | 100 | plant injury at 30 g/ha [11]: 80%; plant injury at 250 g/ha [11]: 100%; pest or weed control at 30 g/ha [12]: 100%; pest or weed control at 250 g/ha [12]: 100%; pest or weed control at 30 g/ha [13]: 90%; pest or weed control at 250 g/ha [13]: 100%
CC#Cc1cc(F)c(C2=C(OC(=O)OC(C)C)C3CCC(C3)C2=O)c(OC)c1 (stereo not shown) [Compound P3] | 90 | 100 | 100 | 100 | 10 | 80 | 100 | 100 | 100 | 100 | 0 | 0 | 100 | 100 | 0 | 0 | 100 | 100 | 70 | 90 | plant injury at 30 g/ha [11]: 80%; plant injury at 250 g/ha [11]: 90%; pest or weed control at 30 g/ha [12]: 100%; pest or weed control at 250 g/ha [12]: 100%; pest or weed control at 30 g/ha [13]: 90%; pest or weed control at 250 g/ha [13]: 90%
